ChEMBL document CHEMBL1201862, “PubChem BioAssay data set” (2004)
Several values for one entry are separate records, joined by “and”; a condition that tells them apart may be missing. Equal values may be shown once. Activity calls are given as the source filed them.

Key:
[1] = tested on: Streptococcus sp. 'group A'; assay: growth inhibition of control SK(-) GAS strain, dose response, counter-screen for streptokinase expression inhibitor project, luminescence, kanamycin, BacTiterGlo, confirmation (AID 1900); assay type: functional, organism-based
Streptokinase A = target: T1, Streptokinase A (Streptococcus pyogenes serotype M1, UniProt P10520); assay: S. pyogenes streptokinase expression inhibitors, potency, dose response, plasminogen activation absorbance, OD405 (AID 1914); assay type: functional, Streptococcus pyogenes M1 GAS;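 further: secreted streptokinase activity via plasminogen activation per viability signal from cell pellet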
T1 sequence (P10520 whole entry): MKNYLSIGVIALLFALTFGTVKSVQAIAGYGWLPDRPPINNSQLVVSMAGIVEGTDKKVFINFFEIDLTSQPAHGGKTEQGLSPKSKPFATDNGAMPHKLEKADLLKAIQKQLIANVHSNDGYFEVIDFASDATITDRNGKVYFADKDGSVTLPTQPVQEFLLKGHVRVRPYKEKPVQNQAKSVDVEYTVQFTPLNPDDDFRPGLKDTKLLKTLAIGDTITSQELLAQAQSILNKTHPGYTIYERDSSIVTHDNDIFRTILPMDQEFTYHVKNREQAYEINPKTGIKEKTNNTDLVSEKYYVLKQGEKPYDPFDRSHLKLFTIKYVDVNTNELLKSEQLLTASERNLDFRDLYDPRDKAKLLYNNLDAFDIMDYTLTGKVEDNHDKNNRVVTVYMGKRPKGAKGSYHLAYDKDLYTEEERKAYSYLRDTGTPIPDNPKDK

Streptococcus = assay: Group A Streptococcus viability loss, dose response, counter-screen for streptokinase expression inhibitor project, luminescence, BacTiterGlo (AID 1915); assay type: functional, organism-based;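 further: potency for reduction of bacterial viability or growth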
Cytochrome P450 3A4 = Cytochrome P450 3A4 (Homo sapiens, UniProt P08684);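 further: CYP3A4 tested as one member of a cytochrome P450 panel screen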
Cytochrome P450 2C9 = Cytochrome P450 2C9 (Homo sapiens, UniProt P11712)
Cytochrome P450 1A2 = target: T2, Cytochrome P450 1A2 (Homo sapiens, UniProt P05177);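 further: PubChem cytochrome P450 panel assay, CYP1A2 panel member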
T2 sequence (P05177 whole entry): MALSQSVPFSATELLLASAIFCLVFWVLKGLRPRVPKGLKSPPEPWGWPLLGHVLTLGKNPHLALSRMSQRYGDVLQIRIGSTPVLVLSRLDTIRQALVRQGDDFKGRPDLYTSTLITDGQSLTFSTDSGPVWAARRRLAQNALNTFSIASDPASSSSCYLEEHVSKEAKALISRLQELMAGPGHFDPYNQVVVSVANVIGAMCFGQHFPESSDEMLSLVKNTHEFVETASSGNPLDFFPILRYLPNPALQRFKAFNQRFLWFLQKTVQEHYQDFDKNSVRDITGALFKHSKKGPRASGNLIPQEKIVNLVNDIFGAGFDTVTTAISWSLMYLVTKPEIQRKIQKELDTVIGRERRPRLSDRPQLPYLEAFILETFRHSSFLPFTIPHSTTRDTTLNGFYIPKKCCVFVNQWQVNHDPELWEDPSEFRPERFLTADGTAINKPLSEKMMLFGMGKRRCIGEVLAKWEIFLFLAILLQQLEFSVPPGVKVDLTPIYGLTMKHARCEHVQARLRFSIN

[2] = target: T3, Rac GTPase-activating protein 1 (Homo sapiens, UniProt Q9H0H5); assay: MgcRacGAP GTPase-activating activity inhibitors, confirmation, biochemical, ADP Hunter fluorescence, primary and confirmatory (AID 624330); assay type: functional
T3 sequence (Q9H0H5 whole entry): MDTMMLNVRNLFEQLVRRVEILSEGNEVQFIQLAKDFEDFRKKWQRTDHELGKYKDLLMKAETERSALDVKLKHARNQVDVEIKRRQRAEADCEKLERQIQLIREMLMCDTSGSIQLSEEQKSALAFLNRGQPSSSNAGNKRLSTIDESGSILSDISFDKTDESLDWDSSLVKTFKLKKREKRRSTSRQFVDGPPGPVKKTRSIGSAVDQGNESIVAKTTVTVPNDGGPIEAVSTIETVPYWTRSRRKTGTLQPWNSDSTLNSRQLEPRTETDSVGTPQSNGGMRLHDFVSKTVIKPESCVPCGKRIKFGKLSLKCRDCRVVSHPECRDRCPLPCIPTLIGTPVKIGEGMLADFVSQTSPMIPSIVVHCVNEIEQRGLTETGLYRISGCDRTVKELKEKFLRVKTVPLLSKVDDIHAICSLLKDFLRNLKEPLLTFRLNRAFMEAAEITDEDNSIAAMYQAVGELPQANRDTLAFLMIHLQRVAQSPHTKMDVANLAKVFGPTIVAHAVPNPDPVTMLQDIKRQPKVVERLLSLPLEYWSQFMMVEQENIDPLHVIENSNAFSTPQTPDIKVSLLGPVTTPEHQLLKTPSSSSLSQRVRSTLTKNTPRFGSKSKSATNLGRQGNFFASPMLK

Cytochrome P450 2C19 = Cytochrome P450 2C19 (Homo sapiens, UniProt P33261); assay: Cytochrome panel assay with activity outcomes. Panel member name: p450-cyp2c19 Compounds with AC50 equal or less than 10 uM are considered active; assay type: functional
Sequence of Cytochrome P450 2C19 (P33261 whole entry): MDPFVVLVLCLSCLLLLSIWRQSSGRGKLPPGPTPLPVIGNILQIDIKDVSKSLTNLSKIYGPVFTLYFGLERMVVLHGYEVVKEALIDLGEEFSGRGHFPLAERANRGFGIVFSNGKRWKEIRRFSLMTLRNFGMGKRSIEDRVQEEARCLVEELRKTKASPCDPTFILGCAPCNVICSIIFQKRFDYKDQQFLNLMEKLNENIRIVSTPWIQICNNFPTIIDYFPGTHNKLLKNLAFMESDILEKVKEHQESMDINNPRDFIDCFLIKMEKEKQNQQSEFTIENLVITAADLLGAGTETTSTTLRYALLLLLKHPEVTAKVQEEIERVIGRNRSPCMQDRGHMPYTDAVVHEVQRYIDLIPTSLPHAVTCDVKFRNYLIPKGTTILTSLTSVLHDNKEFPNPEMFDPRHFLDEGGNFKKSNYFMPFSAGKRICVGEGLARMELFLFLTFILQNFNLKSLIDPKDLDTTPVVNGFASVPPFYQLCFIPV

Sequence of Cytochrome P450 3A4 (P08684 whole entry): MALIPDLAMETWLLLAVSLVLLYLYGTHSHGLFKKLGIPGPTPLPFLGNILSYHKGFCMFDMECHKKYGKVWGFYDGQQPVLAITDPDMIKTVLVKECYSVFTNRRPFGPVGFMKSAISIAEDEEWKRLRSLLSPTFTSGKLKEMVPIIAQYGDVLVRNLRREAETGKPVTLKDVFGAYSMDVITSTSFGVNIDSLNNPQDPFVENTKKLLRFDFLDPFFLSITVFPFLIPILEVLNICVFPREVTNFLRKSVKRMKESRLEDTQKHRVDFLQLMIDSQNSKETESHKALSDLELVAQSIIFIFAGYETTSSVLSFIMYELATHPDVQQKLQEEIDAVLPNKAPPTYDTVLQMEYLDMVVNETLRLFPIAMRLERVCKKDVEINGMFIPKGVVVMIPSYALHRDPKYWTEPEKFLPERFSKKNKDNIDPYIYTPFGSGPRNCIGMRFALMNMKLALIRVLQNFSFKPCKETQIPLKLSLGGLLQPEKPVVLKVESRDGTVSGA
Sequence of Cytochrome P450 2C9 (P11712 whole entry): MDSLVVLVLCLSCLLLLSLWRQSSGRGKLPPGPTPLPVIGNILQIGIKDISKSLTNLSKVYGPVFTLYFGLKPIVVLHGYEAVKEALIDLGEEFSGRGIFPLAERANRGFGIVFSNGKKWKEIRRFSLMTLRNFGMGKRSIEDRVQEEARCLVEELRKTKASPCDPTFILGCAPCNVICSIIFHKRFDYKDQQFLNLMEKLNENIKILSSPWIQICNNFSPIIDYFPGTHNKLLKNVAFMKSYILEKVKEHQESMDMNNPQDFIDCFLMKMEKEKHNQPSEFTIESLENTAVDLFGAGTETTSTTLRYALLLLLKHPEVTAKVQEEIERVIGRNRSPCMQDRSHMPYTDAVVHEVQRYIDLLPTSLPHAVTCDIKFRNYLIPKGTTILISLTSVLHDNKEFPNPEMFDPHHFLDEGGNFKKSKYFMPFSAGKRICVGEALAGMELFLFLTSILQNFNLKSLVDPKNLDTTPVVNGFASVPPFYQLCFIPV

With Cc1nc(NS(=O)(=O)c2ccc(Cl)s2)c2c3c(sc2n1)CCCC3 as the compound, how does the EC50 [1] read?
Its EC50 is 4.37 µM (active).

What about the EC50 (Streptokinase A) of the same compound?
Its EC50 is 21.5 µM (inconclusive).

What about the EC50 (Streptococcus) of the same compound?
The EC50 was 14.9 µM (active).

CCCCc1ccc(-c2nc(NC(=O)C3C4CCC(O4)C3C(=O)O)sc2C)cc1 (configuration not stated) was tested. Which AC50 (Cytochrome P450 3A4) did it give?
The AC50 was 14.1 µM (inconclusive).

And the AC50 (Cytochrome P450 2C9)?
The AC50 was 3.55 µM (inconclusive).

COc1cccc([C@H](O)Cn2cc(-c3cccc(CON=C(C)C)c3)nn2)c1 was tested. Which AC50 (Cytochrome P450 3A4) did it give?
Its AC50 is 3.98 µM (inconclusive).

With C[C@@H](COc1ccccc1)N(CCCl)Cc1ccccc1 as the compound, how does the AC50 (Cytochrome P450 1A2) read?
The AC50 was 12.6 µM (inconclusive).

And the AC50 (Cytochrome P450 2C9)?
The AC50 was 31.6 µM (inconclusive) and 12.6 µM (inconclusive).

For CCOc1ccc(NC(=S)NC(=O)/C=C/c2ccc(OC)c(OC)c2)c([N+](=O)[O-])c1, which AC50 (Cytochrome P450 1A2) is on record?
The AC50 was 15.8 µM (inconclusive).

And the AC50 (Cytochrome P450 2C9)?
The AC50 was 14.1 µM (inconclusive).

How did the IC50 [2] turn out when c1ccc(-c2nnc3n2NC(c2ccc4c(c2)OCO4)S3)cc1 (configuration not stated) was run?
The IC50 was 153 µM (active).

For C[C@@H](C(=O)NCc1ccc(S(C)(=O)=O)cc1)[C@@H]1C[C@@]1(C)[C@@H](NC(=O)OCc1ccccc1)c1ccccc1, which AC50 (Cytochrome P450 1A2) is on record?
Its AC50 is 15.8 µM (inconclusive).

For CCOc1cc(CNc2ccc(N3CCOCC3)cc2)cc(Br)c1OCC, which IC50 [2] is on record?
The IC50 was 19.6 µM (active).

Which results are given for Cc1c(C(=O)O)oc2ccc(S(=O)(=O)NCc3ccc4c(c3)OCO4)cc12?
AC50 (Cytochrome P450 1A2): 14.1 µM (inconclusive); AC50 (Cytochrome P450 2C9): 3.55 µM (inconclusive)

For COc1ccc(NC(=O)Cn2nnc(C(=O)NCc3cccs3)c2N)cc1Cl, which EC50 [1] is on record?
The EC50 was 67.2 µM (active).

What about the EC50 (Streptokinase A) of the same compound?
The EC50 was > 150 µM (not active).

What about the EC50 (Streptococcus) of the same compound?
Its EC50 is > 150 µM (not active).

How did the EC50 [1] turn out when O=C(Nc1ccc(Br)cc1C(=O)O)c1ccc2c(c1)C(=O)N(Cc1ccccc1)C2=O was run?
Its EC50 is 0.589 µM (active).

What about the EC50 (Streptokinase A) of the same compound?
The EC50 was 17.5 µM (inconclusive).

And the EC50 (Streptococcus)?
The EC50 was 18.3 µM (active).

With Cn1c(C(=O)N2CCN(c3ccc([N+](=O)[O-])cc3)CC2)cc2c(O)nc3ccccc3c21 as the compound, how does the EC50 [1] read?
Its EC50 is 5.33 µM (active).

And the EC50 (Streptokinase A)?
The EC50 was > 150 µM (not active).

And the EC50 (Streptococcus)?
Its EC50 is > 150 µM (not active).

With CC(C)CN1CCCC2(CCN(C(=O)c3csnn3)CC2)C1 as the compound, how does the AC50 (Cytochrome P450 3A4) read?
Its AC50 is 31.6 µM (inconclusive).

Which AC50 (Cytochrome P450 2C19; read-out: AC50) does the source give for CC(C)(C)C(=O)NC(c1ccc(Cl)cc1)[C@]1(C)C[C@H]1C1CCCCC1 (some centres not stated) here?
The AC50 was 7.94 µM (inconclusive).

How did the AC50 (Cytochrome P450 1A2) turn out when COc1cccc(Cn2c(=O)c(CCc3ccccc3)nc3cnc(OC)nc32)c1 was run?
The AC50 was 12.6 µM (inconclusive).

How did the AC50 (Cytochrome P450 3A4) turn out when CCCC1(C(=O)OC)C=C2C(=C(C)C(=O)C2C)CN1 (configuration not stated) was run?
The AC50 was 39.8 µM (inconclusive).

How did the EC50 [1] turn out when CCOC(=O)c1c(CN(C)C)n(-c2ccc(C)cc2)c2cc(Br)c(O)cc12 was run?
Its EC50 is 8.71 µM (active).

And the EC50 (Streptokinase A)?
Its EC50 is 21.9 µM (active).

What about the EC50 (Streptococcus) of the same compound?
The EC50 was > 150 µM (not active).

N=C(N)SCc1cccc2c(=O)cc(-c3ccccc3)oc12 was tested. Which AC50 (Cytochrome P450 2C19; read-out: AC50) did it give?
The AC50 was 3.98 µM (inconclusive).

What about the AC50 (Cytochrome P450 3A4) of the same compound?
The AC50 was 3.16 µM (inconclusive).

How did the AC50 (Cytochrome P450 2C19) turn out when CCOC(=O)c1c(C)[nH]c(C(=O)OCC(=O)NC2CCS(=O)(=O)C2)c1C (configuration not stated) was run?
Its AC50 is “inconclusive”.

What about the AC50 (Cytochrome P450 2C9) of the same compound?
Its AC50 is 31.6 µM (inconclusive).

For COC(=O)c1ccc(C(=O)OC)c(NC(=O)CSCc2ccc(Br)cc2)c1, which AC50 (Cytochrome P450 2C19; read-out: AC50) is on record?
The AC50 was 2.24 µM (inconclusive).

Which results are given for O=C(CSc1nnc(CNC(=O)c2ccc(F)cc2)o1)NCc1ccccc1Cl?
EC50 [1]: > 150 µM (not active); EC50 (Streptokinase A): > 150 µM (not active); EC50 (Streptococcus): > 150 µM (not active)

O=C(c1ccccc1)c1ccc2n1CC[C@H]2C(=O)O was tested. Which AC50 (Cytochrome P450 1A2) did it give?
The AC50 was 25.1 µM (inconclusive) and 15.8 µM (inconclusive).

With O=C1CSc2ccc(C(=O)NCCC3=CCCCC3)cc2N1 as the compound, how does the AC50 (Cytochrome P450 2C19; read-out: AC50) read?
The AC50 was 7.94 µM (inconclusive).

And the AC50 (Cytochrome P450 3A4)?
The AC50 was 12.6 µM (inconclusive).

Cc1sc2ncnc(Nc3ccc(O)cc3)c2c1C was tested. Which IC50 [2] did it give?
Its IC50 is 39.4 µM (active).

For COc1ccc(C2=NOC(C(=O)Nc3ccc(C(C)=O)cc3)C2)cc1OC (configuration not stated), which AC50 (Cytochrome P450 2C19; read-out: AC50) is on record?
The AC50 was 22.4 µM (inconclusive).

What about the AC50 (Cytochrome P450 1A2) of the same compound?
The AC50 was 6.31 µM (inconclusive).

And the AC50 (Cytochrome P450 2C9)?
Its AC50 is 11.2 µM (inconclusive).

How did the AC50 (Cytochrome P450 3A4) turn out when CN(Cc1ccccc1)Cn1ccnc1 was run?
The AC50 was 3.98 µM (inconclusive).
